The target of series [1] is T1, acid ceramidase (hACR) (Homo sapiens, UniProt Q13510).
T1 construct: expressed in transfected cells
T1 sequence (Q13510 22-395): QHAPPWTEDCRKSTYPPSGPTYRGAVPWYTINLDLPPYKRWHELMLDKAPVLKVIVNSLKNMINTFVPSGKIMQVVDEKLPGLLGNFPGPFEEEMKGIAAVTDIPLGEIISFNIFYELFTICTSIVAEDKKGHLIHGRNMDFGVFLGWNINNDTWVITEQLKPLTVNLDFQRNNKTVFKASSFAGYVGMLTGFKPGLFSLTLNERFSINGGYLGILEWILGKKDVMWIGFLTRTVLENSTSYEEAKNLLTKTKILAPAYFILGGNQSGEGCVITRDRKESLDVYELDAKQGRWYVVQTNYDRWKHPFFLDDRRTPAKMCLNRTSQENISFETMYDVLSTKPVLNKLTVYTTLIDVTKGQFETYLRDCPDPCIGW
Description: Acid ceramidase inhibition, biochemical fluorescent assay with cell lysates overexpressing acid ceramidase (substrate Rbm14-12). The following applies: cell lysate, 1 hr preincubation at RT, pH 4.5, Rbm14-12 6.3 μM. The procedure: The ability of exemplary compounds to inhibit acid ceramidase was measured.
Cell lysates overexpressing acid ceramidase were used as the enzyme source for compound potency determination in a biochemical fluorescent assay. Briefly, compounds were preincubated with 10 μg protein of cell lysates in a dose-response manner for 1 hr at RT in the assay buffer containing 25 mM NaAC and 100 mM NaCl, pH 4.5. […] The samples were incubated with the stopping buffer at RT for 1 hr to allow the fluorescent product to be formed. […] Data were collected and used to determine the IC50 values of compounds by curve fitting to the four-parameter inhibition equation.

Series [2] in a line: Compound solubility in water. Format: physicochemical.

The record followed here is patent US20220411388A1, “SUBSTITUTED IMIDAZOLE CARBOXAMIDES AND THEIR USE IN THE TREATMENT OF MEDICAL DISORDERS” (Bial - R&D Investments, S.A., priority 2019, published 2022).

Structures are written as SMILES. Converted amounts (≈) assume the structure as drawn. Like-named read-outs stand apart in the source and are kept apart here.

Broadly, the IC50 is the concentration at which inhibition is half-maximal. Broadly, the solubility is the dissolved amount per volume that the medium holds. Lower therefore signals a poorly soluble substance.

With `CN(C)Cc1ccc(-c2cn(C(=O)NCCc3ccccc3)cn2)cc1` [Example 34, 4-(4-((Dimethylamino)methyl)phenyl)-N-phenethyl-1H-imidazole-1-carboxamide], in series [1] (read-out: IC50 hACR), the IC50 is below 0.2 µM. In series [2], the concentration in solution (solubility) came to 25.6 µg/mL (≈ 73.5 µM).
In the same order, the values of `COc1nccn1C(=O)NCCc1ccccc1` [Example 135, 2-Methoxy-N-phenethyl-1H-imidazole-1-carboxamide] are below 0.2 µM and 26 µg/mL (≈ 106 µM).
For the compound `COc1nc(C)cn1C(=O)NCCC(C)C` [Example 160, N-iso-Pentyl-2-methoxy-4-methyl-1H-imidazole-1-carboxamide], the half-inhibitory concentration (IC50) in series [1] (read-out: IC50 hACR) was below 0.2 µM. In addition, in series [2], the “Compound Solubility in Water” value amounted to 13 µg/mL.
As to `CC(C)CC(C)NC(=O)n1cnc(-c2cccnc2)c1` (stereo not shown) [Example 59, N-(4-Methylpentan-2-yl)-4-(pyridin-3-yl)-1H-imidazole-1-carboxamide], the IC50 in series [1] (read-out: IC50 hACR) fell in the range of 0.2 to 1 µM. Also, in series [2], the concentration in solution (solubility) came to 22.3 µg/mL (≈ 81.9 µM).
For the compound `COc1nc(C)cn1C(=O)NCC#CCC1(C(F)(F)F)CC1` [Example 182, 2-Methoxy-4-methyl-N-(4-(1-(trifluoromethyl)cyclopropyl)but-2-ynyl)-1H-imidazole-1-carboxamide], the 50% inhibitory concentration (IC50) in series [1] (read-out: IC50 hACR) is below 0.2 µM. Further, in series [2], the concentration in solution (solubility) came to 25 µg/mL (≈ 79.3 µM).
In the same order, the values of `CC(C)(C)c1cn(C(=O)NCCc2ccccc2)cn1` [Example 3, 4-tert-Butyl-N-phenethyl-1H-imidazole-1-carboxamide] are below 0.2 µM and 5.2 µg/mL (≈ 19.2 µM).
For the compound `COc1nc(C(C)(C)C)cn1C(=O)NCCCCn1ccc(C(C)(C)C)n1` [Example 134, 4-(tert-Butyl)-N-(4-(3-(tert-butyl)-1H-pyrazol-1-yl)butyl)-2-methoxy-1H-imidazole-1-carboxamide], the IC50 in series [1] (read-out: IC50 hACR) is below 0.2 µM. For the same compound, the concentration in solution in series [2] (solubility) was 18 µg/mL (≈ 47.9 µM).
Take `N#Cc1ccc(-c2cn(C(=O)NCCc3ccccc3)cn2)cn1` [Example 28, 4-(6-Cyanopyridin-3-yl)-N-phenethyl-1H-imidazole-1-carboxamide]: in series [1] (read-out: IC50 hACR), the IC50 is below 0.2 µM. The concentration in solution in series [2] (solubility) was 5 µg/mL (≈ 15.8 µM).
In the same order, the values of `COc1nc(C2CCC(F)(F)CC2)cn1C(=O)NCCC(C)C` [Example 111, 4-(4,4-Difluorocyclohexyl)-N-iso-pentyl-2-methoxy-1H-imidazole-1-carboxamide] are 0.2 to 1 µM and 15 µg/mL (≈ 45.5 µM).
In the case of `COc1ccc(-c2cn(C(=O)NCCC3(C(F)(F)F)CC3)c(OC)n2)cn1` [Example 94, 2-Methoxy-4-(6-methoxypyridin-3-yl)-N-(2-(1-(trifluoromethyl)cyclopropyl)ethyl)-1H-imidazole-1-carboxamide], in series [1] (read-out: IC50 hACR), the half-inhibitory concentration (IC50) lay within 0.2 to 1 µM. The compound further gave a solubility in series [2] of 6 µg/mL (≈ 15.6 µM).
In the case of `CC(C)CCCCNC(=O)n1cnc(-c2cccnc2)c1` [Example 39, N-(5-Methylhexyl)-4-(pyridin-3-yl)-1H-imidazole-1-carboxamide], the half-inhibitory concentration (IC50) in series [1] (read-out: IC50 hACR) was below 0.2 µM. Further, the concentration in solution in series [2] (solubility) was 2.7 µg/mL (≈ 9.43 µM).
For `CN1CCC(c2cn(C(=O)NCCCC3(C(F)(F)F)CC3)cn2)CC1` [Example 174, 4-(1-Methylpiperidin-4-yl)-N-(3-(1-(trifluoromethyl)cyclopropyl)propyl)-1H-imidazole-1-carboxamide], the half-inhibitory concentration (IC50) in series [1] (read-out: IC50 hACR) was below 0.2 µM. This compound also returned a solubility in series [2] of 25 µg/mL (≈ 69.8 µM).
As for `O=C(NCCC1(C(F)(F)F)CC1)n1cnc(-c2cccnc2)c1` [Example 23, 4-(Pyridin-3-yl)-N-(2-(1-(trifluoromethyl)cyclopropyl)ethyl)-1H-imidazole-1-carboxamide], the IC50 in series [1] (read-out: IC50 hACR) was in the range of 0.2 to 1 µM. In series [2], this compound had a solubility of 23.7 µg/mL (≈ 73.1 µM).
The corresponding values for `CSc1nccn1C(=O)NCCC(C)C` [Example 132, N-iso-Pentyl-2-(methylthio)-1H-imidazole-1-carboxamide] are below 0.2 µM and 10 µg/mL (≈ 44 µM).
In the same order, the values of `COc1nc(-c2ccccc2)cn1C(=O)NCCc1ccccc1` [Example 8, 2-Methoxy-N-phenethyl-4-phenyl-1H-imidazole-1-carboxamide] are 0.2 to 1 µM and 0.1 µg/mL (≈ 0.311 µM).
The corresponding values for `COc1nc(C)cn1C(=O)NCCc1ccccc1` [Example 143, 2-Methoxy-4-methyl-N-phenethyl-1H-imidazole-1-carboxamide] are below 0.2 µM and 27 µg/mL (≈ 104 µM).
`CSc1nc(C(C)(C)C)cn1C(=O)NCCC(C)C` [Example 80, 4-(tert-Butyl)-N-iso-pentyl-2-(methylthio)-1H-imidazole-1-carboxamide]: in series [1] (read-out: IC50 hACR), the IC50 is below 0.2 µM. In series [2], this compound registered a solubility of 0.2 µg/mL (≈ 0.706 µM).
In the same order, the values of `COc1ccc(-c2cn(C(=O)NCCC3CC3)cn2)cn1` [Example 70, N-(2-Cyclopropylethyl)-4-(6-methoxypyridin-3-yl)-1H-imidazole-1-carboxamide] are 0.2 to 1 µM and 1.3 µg/mL (≈ 4.54 µM).
In the same order, the values of `COc1nc(C2(C)CCOCC2)cn1C(=O)NCCC1CC1` [Example 104, N-(2-Cyclopropylethyl)-2-methoxy-4-(4-methyltetrahydro-2H-pyran-4-yl)-1H-imidazole-1-carboxamide] are 0.2 to 1 µM and 28 µg/mL (≈ 91.1 µM).
For `CN1CCC(Oc2nc(Cl)cn2C(=O)NCCCC(F)(F)F)CC1` [Example 188, 4-Chloro-2-((1-methylpiperidin-4-yl)oxy)-N-(4,4,4-trifluorobutyl)-1H-imidazole-1-carboxamide], in series [1] (read-out: IC50 hACR), the IC50 fell in the range of 0.2 to 1 µM. Moreover, the solubility in series [2] is 36 µg/mL (≈ 97.6 µM).
As for `CCc1cn(C(=O)NCCC(C)C)c(OC)n1` [Example 77, 4-Ethyl-N-iso-pentyl-2-methoxy-1H-imidazole-1-carboxamide], in series [1] (read-out: IC50 hACR), the IC50 is 0.2 to 1 µM. The amount in solution in series [2] (solubility) came to 23 µg/mL (≈ 96.1 µM).
As for `CCC(C)(C)c1cn(C(=O)NCCC(C)C)c(OC)n1` [Example 100, N-iso-Pentyl-2-methoxy-4-(tert-pentyl)-1H-imidazole-1-carboxamide], the half-inhibitory concentration (IC50) in series [1] (IC50 hACR) fell in the range of 0.2 to 1 µM. The solubility in series [2] worked out at 14 µg/mL (≈ 49.8 µM).
In the case of `CC(C)CCNC(=O)n1cnc(-c2ccccc2)c1` [Example 27, N-iso-Pentyl-4-phenyl-1H-imidazole-1-carboxamide], in series [1] (read-out: IC50 hACR), the concentration for half-maximal inhibition (IC50) was below 0.2 µM. In series [2], this compound returned a solubility of 3.1 µg/mL (≈ 12 µM).
The corresponding values for `O=C(NCCc1ccccc1)n1cnc(-c2ccccn2)c1` [Example 4, N-Phenethyl-4-(pyridin-2-yl)-1H-imidazole-1-carboxamide] are 0.2 to 1 µM and 21.1 µg/mL (≈ 72.2 µM).
The corresponding values for `CCC1(NC(=O)n2cc(C(C)(C)C)nc2OC)CC1` [Example 129, 4-(tert-Butyl)-N-(1-ethylcyclopropyl)-2-methoxy-1H-imidazole-1-carboxamide] are above 1 µM and 16 µg/mL (≈ 60.3 µM).
Consider `COc1nc(C(C)(C)C)cn1C(=O)NCCC1(C(F)(F)F)CC1` [Example 90, 4-(tert-Butyl)-2-methoxy-N-(2-(1-(trifluoromethyl)cyclopropyl)ethyl)-1H-imidazole-1-carboxamide], for which the IC50 in series [1] (read-out: IC50 hACR) fell in the range of 0.2 to 1 µM. Further, in series [2], the solubility was determined as 17 µg/mL (≈ 51 µM).
In the same order, the values of `COc1nc(C(C)(C)C)cn1C(=O)NCC(C)C` [Example 86, 4-(tert-Butyl)-N-iso-butyl-2-methoxy-1H-imidazole-1-carboxamide] are 0.2 to 1 µM and 15 µg/mL (≈ 59.2 µM).
The corresponding values for `O=C(NCCOc1ccccc1)n1cnc(-c2cccnc2)c1` [Example 17, N-(2-Phenoxyethyl)-4-(pyridin-3-yl)-1H-imidazole-1-carboxamide] are below 0.2 µM and 2.6 µg/mL (≈ 8.43 µM).
In the same order, the values of `COc1nc(-c2ccccc2)cn1C(=O)NCCCc1ccccc1` [Example 12, 2-Methoxy-4-phenyl-N-(3-phenylpropyl)-1H-imidazole-1-carboxamide] are 0.2 to 1 µM and 1 µg/mL (≈ 2.98 µM).
Take `CC(C)CCNC(=O)n1ccnc1OC(C)C` [Example 122, N-iso-Pentyl-2-iso-propoxy-1H-imidazole-1-carboxamide]: the half-inhibitory concentration (IC50) in series [1] (read-out: IC50 hACR) was in the range of 0.2 to 1 µM. Further, the solubility in series [2] turned out to be 21 µg/mL (≈ 87.7 µM).
As for `COc1nc(C)cn1C(=O)NCCCC(C)C` [Example 142, 2-Methoxy-4-methyl-N-(4-methylpentyl)-1H-imidazole-1-carboxamide], in series [1] (read-out: IC50 hACR), the IC50 lay in the range of 0.2 to 1 µM. In addition, the concentration in solution in series [2] (solubility) was 22 µg/mL (≈ 91.9 µM).
The corresponding values for `COc1nc(C2CC2)cn1C(=O)NC1CC1` [Example 125, N,4-Dicyclopropyl-2-methoxy-1H-imidazole-1-carboxamide] are above 1 µM and 14 µg/mL (≈ 63.3 µM).
In the same order, the values of `O=C(NCCOc1ccccc1)n1cnc(-c2ccccc2)c1` [Example 18, N-(2-Phenoxyethyl)-4-phenyl-1H-imidazole-1-carboxamide] are below 0.2 µM and 0.06 µg/mL (≈ 0.195 µM).
In the same order, the values of `COc1nc(C)cn1C(=O)NCCC(C)C` [Example 119, N-iso-Pentyl-2-methoxy-4-methyl-1H-imidazole-1-carboxamide] are 0.2 to 1 µM and 14 µg/mL (≈ 62.1 µM).
Take `CC(C)CCNC(=O)n1cnc(-c2cccnc2)c1` [Example 21, N-iso-Pentyl-4-(pyridin-3-yl)-1H-imidazole-1-carboxamide]: in series [1] (read-out: IC50 hACR), the concentration for half-maximal inhibition (IC50) lay in the range of 0.2 to 1 µM. This compound had a solubility in series [2] of 21.5 µg/mL (≈ 83.2 µM).
